Assay results: patent US20240376097A1, “BCL-2 Inhibitor” (BeiGene Ltd., priority 2020, published 2024)
Like-named read-outs stand apart in the source and are kept apart here.

Experiments:
[1] = biological target: Recombinant human Bcl-2 protein (Homo sapiens (Human), UniProt P10415); assay: Bcl-2 TR-FRET Assay; type: binding
Method in brief: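 Displacement of FITC-labelled Bak peptide (0.5 nM) from 0.05 nM human Bcl-2, detected by TR-FRET with Tb-cryptate anti-6His antibody after 1 h at room temperature. Compounds, 10-point series, preincubated 0.5 h with protein in 20 mM potassium phosphate pH 7.5, 50 mM NaCl. IC50s fitted by four-parameter logistic.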

[2] = biological target: recombinant human Bcl-2-G101V protein (Homo sapiens (Human), UniProt P10415, G101V); assay: Bcl-2-G101V TR-FRET Assay; type: binding; conditions: Bcl-2 G101V mutant, TR-FRET; read-out: Biochemical assay (IC50, nM) Bcl-2 G101V
Method in brief: (§1)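 Percent inhibition of the Bcl-2-G101V–ligand interaction was computed from the 490 nm to 520 nm emission ratio after 337 nm excitation, over increasing compound concentrations; a four-parameter logistic fit gave IC50.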

[3] = tested on: recombinant human Bcl-2-G101V protein; assay: Bcl-2-G101V TR-FRET Assay; type: binding; conditions: ratio of biochemical IC50 Bcl-2 G101V / Bcl-2 WT
Method in brief: as §1

[4] = tested on: RS4;11 (BCL-2 dependent acute lymphoblastic leukemia cell line); assay: RS4;11 Cell Proliferation Assay; type: cell-based; conditions: Homo sapiens, RS4-11, RS4;11 cells, read-out: Cellular proliferation assay (IC50, nM) RS4
Method in brief: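 Viability measured via CellTiter-Glo luminescence after a 48 h, 37 °C exposure to compounds (10 points, highest 1 μM). Seeding was 50,000 RS4;11 cells per well in 10% FBS RPMI-1640; IC50 given as mean.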

[5] = tested on: BCL-2 G101V knock-in cell line H96 (derive from RS4;11); assay: Bcl 2-G101V Knock-In RS4;11 Cell Proliferation Assay; type: cell-based; conditions: Homo sapiens, RS4;11 Bcl-2 G101V knock-in clone H96, 48 hrs, CellTiter-GLO, read-out: Cellular proliferation assay (IC50, nM) RS4
Method in brief: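 CellTiter-Glo luminescence after 48 h, 37 °C compound treatment (10 concentrations, maximum 1 μM or 10 μM) gave mean IC50 values. Cells were 50,000 per well of H96, a BCL2-G101V knock-in single clone derived from RS4;11 by Cas9 editing.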

[6] = biological target: recombinant human Bcl-2 D103Y protein (Homo sapiens (Human), UniProt P10415, D103Y); assay: Bcl-2-D103Y Biochemical Assay (TR-FRET); type: binding; conditions: for IC50: TR-FRET, FITC labeled Bak peptide; for Ratio of Bcl-2 D103Y/Bcl-2 WT: ratio of IC50
Method in brief: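 Compounds titrated against the Bcl-2 D103Y–ligand interaction; inhibition derived from the TR-FRET emission ratio 490 nm/520 nm after 337 nm excitation. Four-parameter logistic fitting gave IC50.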

[7] = Bcl-2 wild type, TR-FRET, read-out: Biochemical assay (IC50, nM) Bcl-2 WT
[8] = wild type Bcl-2, unit inferred, read-out: Bcl-2 WT

SMILES | IC50 [1, 7] [nM] | IC50 [1, 8] [nM] | IC50 [2] [nM] | Ratio of Bcl-2 G101V/WT [3] | IC50 [4] [nM] | IC50 [5] [nM] | IC50 [6] [nM] | Ratio of Bcl-2 D103Y/Bcl-2 WT [6] | ratio of Bcl-2 D103Y/Bcl-2 wt, compared with F91b in WO2019210828 ([6]; comparison in words)
CC(C)c1ccccc1C1CN(C2CCC2)CCN1C1CC2(CCN(c3ccc(C(=O)NS(=O)(=O)c4ccc(NC[C@H]5CC[C@](C)(O)CC5)c([N+](=O)[O-])c4)c(Oc4cnc5[nH]ccc5c4)c3)CC2)C1 (some centres unmarked) [Example 5, 2-((1H-pyrrolo[2,3-b]pyridin-5-yl)oxy)-4-(2-(4-cyclobutyl-2-(2-isopropylphenyl)piperazin-1-yl)-7-azaspiro[3.5]nonan-7-yl)-N-((4-((((1r,4r)-4-hydroxy-4-methylcyclohexyl)methyl)amino)-3-nitrophenyl)sulfonyl)benzamide] | 0.037 | 0.037 | 0.45 | 12.2 | 0.58 | 5.33 | 0.32 | 12 | 
COc1cc(CN2CCN(C3CC4(C3)CN(c3ccc(C(=O)NS(=O)(=O)c5ccc(NC[C@H]6CC[C@](C)(O)CC6)c([N+](=O)[O-])c5)c(Oc5cnc6[nH]ccc6c5)c3)C4)[C@H](c3ccccc3C(C)C)C2)cc2c1OCCC2 [Example 318, 2-((1H-pyrrolo[2,3-b]pyridin-5-yl)oxy)-N-((4-((((1r,4r)-4-hydroxy-4-methylcyclohexyl)methyl)amino)-3-nitrophenyl)sulfonyl)-4-(6-((R)-2-(2-isopropylphenyl)-4-((8-methoxychroman-6-yl)methyl)piperazin-1-yl)-2-azaspiro[3.3]heptan-2-yl)benzamide] | 0.056 | 0.056 | 0.16 | 2.9 | 0.2 | 0.31 | 0.052 | 0.9 | 
COc1cc(CN2CCN(C3CC4(CCN(c5ccc(C(=O)NS(=O)(=O)c6ccc(NC[C@H]7CC[C@](C)(O)CC7)c([N+](=O)[O-])c6)c(Oc6cnc7[nH]cc(F)c7c6)c5)CC4)C3)[C@H](c3ccccc3C(C)C)C2)ccc1F [Example 190, 2-((3-fluoro-1H-pyrrolo[2,3-b]pyridin-5-yl)oxy)-4-(2-((R)-4-(4-fluoro-3-methoxybenzyl)-2-(2-isopropylphenyl)piperazin-1-yl)-7-azaspiro[3.5]nonan-7-yl)-N-((4-((((1r,4r)-4-hydroxy-4-methylcyclohexyl)methyl)amino)-3-nitrophenyl)sulfonyl)benzamide] | 0.23 | 0.23 | 0.62 | 2.7 | 0.13 | 0.37 | 0.34 | 1.5 | 
CC(C)c1ccccc1C1CN(Cc2ccc(C#N)cc2)CCN1C1CC2(CCN(c3ccc(C(=O)NS(=O)(=O)c4ccc(NC[C@H]5CC[C@](C)(O)CC5)c([N+](=O)[O-])c4)c(Oc4cnc5[nH]ccc5c4)c3)CC2)C1 (some centres unmarked) [Example 42, 2-((1H-pyrrolo[2,3-b]pyridin-5-yl)oxy)-4-(2-(4-(4-cyanobenzyl)-2-(2-isopropylphenyl)piperazin-1-yl)-7-azaspiro[3.5]nonan-7-yl)-N-((4-((((1r,4r)-4-hydroxy-4-methylcyclohexyl)methyl)amino)-3-nitrophenyl)sulfonyl)benzamide] | 0.41 | 0.41 | 2.5 | 6.1 | 1.8 | 13.5 | 1.7 | 4.1 | 
COc1cc(CN2CCN(C3CC4(C3)CN(c3ccc(C(=O)NS(=O)(=O)c5ccc(NC[C@H]6CC[C@](C)(O)CC6)c([N+](=O)[O-])c5)c(Oc5cnc6[nH]cc(F)c6c5)c3)C4)[C@H](c3ccccc3C(C)C)C2)ccc1C1COC1 [Example 345, 2-((3-fluoro-1H-pyrrolo[2,3-b]pyridin-5-yl)oxy)-N-((4-((((1r,4r)-4-hydroxy-4-methylcyclohexyl)methyl)amino)-3-nitrophenyl)sulfonyl)-4-(6-((R)-2-(2-isopropylphenyl)-4-(3-methoxy-4-(oxetan-3-yl)benzyl)piperazin-1-yl)-2-azaspiro[3.3]heptan-2-yl) benzamide] | 0.16 | 0.16 | 0.38 | 2.4 | 0.14 | 0.24 | 0.13 | 0.8 | 
CC(C)c1ccccc1C1CN(Cc2ccc3c(c2)OCO3)CCN1C1CC2(CCN(c3ccc(C(=O)NS(=O)(=O)c4ccc(NC[C@H]5CC[C@](C)(O)CC5)c([N+](=O)[O-])c4)c(Oc4cnc5[nH]ccc5c4)c3)CC2)C1 (some centres unmarked) [Example 122, 2-((1H-pyrrolo[2,3-b]pyridin-5-yl)oxy)-4-(2-(4-(benzo[d][1.3]dioxol-5-ylmethyl)-2-(2-isopropylphenyl)piperazin-1-yl)-7-azaspiro[3.5]nonan-7-yl)-N-((4-((((1r,4r)-4-hydroxy-4-methylcyclohexyl)methyl)amino)-3-nitrophenyl)sulfonyl)benzamide] | 0.19 | 0.19 | 0.92 | 5 | 0.3 | 2.2 | 0.47 | 2.5 | 
COc1cc(CN2CCN(C3CC4(CCN(c5ccc(C(=O)NS(=O)(=O)c6ccc(NC[C@H]7CC[C@](C)(O)CC7)c([N+](=O)[O-])c6)c(Oc6cnc7[nH]ccc7c6)c5)CC4)C3)C(c3ccccc3C(C)C)C2)cc(OC)c1OC (some centres unmarked) [Example 75, 2-((1H-pyrrolo[2,3-b]pyridin-5-yl)oxy)-N-((4-((((1r,4r)-4-hydroxy-4-methylcyclohexyl)methyl)amino)-3-nitrophenyl)sulfonyl)-4-(2-(2-(2-isopropylphenyl)-4-(3,4,5-trimethoxybenzyl)piperazin-1-yl)-7-azaspiro[3.5]nonan-7-yl) benzamide] | 0.059 | 0.059 | 0.28 | 4.7 | 0.35 | 1.5 | 0.22 | 3.6 | significantly lower
CC(C)c1ccccc1[C@@H]1CN(Cc2ccc(Cl)cc2)CCN1C1CC2(CCN(c3ccc(C(=O)NS(=O)(=O)c4ccc(NC[C@H]5CC[C@](C)(O)CC5)c([N+](=O)[O-])c4)c(Oc4cnc5[nH]ccc5c4)c3)CC2)C1 (single isomer, unassigned) [Example 29a, 2-((1H-pyrrolo[2,3-b]pyridin-5-yl)oxy)-4-(2-((R or S)-4-(4-chlorobenzyl)-2-(2-isopropylphenyl)piperazin-1-yl)-7-azaspiro[3.5]nonan-7-yl)-N-((4-((((1r,4r)-4-hydroxy-4-methylcyclohexyl)methyl)amino)-3-nitrophenyl)sulfonyl)benzamide] | 0.2 | 0.2 | 0.72 | 3.5 | 0.22 | 1.42 | 0.38 | 1.9 | 
